Key:
[1] = tested on: HCT-116/VM46 human colon carcinoma cells; assay: In vitro cytotoxicity, XTT assay, multi-drug resistant line; type: cell-based; details: 72 h incubation, teniposide-selected, paclitaxel-resistant cells, Examples 1 and 4 as free acid, example 3 as sodium salt
[2] = tested on: A2780/cDDP human ovarian carcinoma resistant to cisplatin; assay: A2780/cDDP human tumor xenograft model; type: in vivo; details: athymic mice, every other day x5
[3] = tested on: HCT-116 human colon carcinoma; assay: HCT-116 human tumor xenograft model; type: in vivo; details: for cures (tumor-free on Day 80 post tumor implant): athymic mice, every other day x5
M109 lung carcinoma [4] = assay: In vivo antitumor activity, subcutaneous M109 model; design: species or system mice; details: for T-C / max. % T/C: once daily x5 from Day 4
[5] = tested on: HCT-116 human colon carcinoma cells; assay: In vitro cytotoxicity, XTT assay; type: cell-based; details: 72 h incubation, Examples 1 and 4 as free acid, example 3 as sodium salt
M109 lung carcinoma [6] = assay: Mice M109 model, intraperitoneal implant; type: in vivo; details: ip M109, ip injections, d. 5 + 9, median survival
Method: Balb/c x DBA/2 F1 hybrid mice were implanted intraperitoneally, as described by William Rose in Evaluation of Madison 109 Lung Carcinoma as a Model for Screening Antitumor Drugs, Cancer Treatment Reports, 65, No. 3-4 (1981), with 0.5 mL of a 2% (w/v) brei of M109 lung carcinoma.
Mice were treated with compound under study by receiving intraperitoneal injections of various doses on either days 1, 5 and 9 post-tumor implant or days 5 and 8 post-implant. Mice were followed daily for survival until approximately 75 -90 days post-tumor implant. One group of mice per experiment remained untreated and served as the control group. Median survival times of compound-treated (T) mice were compared to the median survial time of the control (C) mice. The ratio of the two values for each compound-treated group of mice was multiplied by 100 and expressed as a percentage (i.e. % T/C) in Table III for representative compounds of formula (B′).

[7] = iv, 36 mg/kg/inj, Example 3 as triethanolamine salt
[8] = another M109 experiment, iv, 48 or 36 mg/kg/inj.
[9] = one M109 experiment, iv, 36 or 18 mg/kg/inj.
[10] = sc M109, i.v. once daily days 5-9, opt. dose 18 mg/kg/inj
[11] = another M109 experiment, triethanolamine salt, iv, 48 mg/kg/inj.
[12] = another M109 experiment, triethanolamine salt, orally, 200 mg/kg/adm.
[13] = one M109 experiment, triethanolamine salt, iv in water, 36 mg/kg/inj.
[14] = one M109 experiment, triethanolamine salt, orally, 160 mg/kg/adm.

CC(=O)O[C@H]1C(=O)[C@@]2(C)[C@H]([C@H](OC(=O)c3ccccc3)[C@]3(O)C[C@H](OC(=O)[C@H](O)[C@@H](NC(=O)c4ccccc4)c4ccccc4)C(C)=C1C3(C)C)[C@]1(OC(C)=O)CO[C@@H]1C[C@@H]2O [paclitaxel, reference compound]
IC50 [1]: 0.44 µM
max. T-C [2, 7]: 26.3 days
cures (tumor-free on Day 80 post tumor implant) ([3]; iv, 24 mg/kg/inj., of 7 treated mice): 6
cures (tumor-free on Day 80 post tumor implant) ([3]; iv, 36 mg/kg/inj., of 8 treated mice): 6
activity in sc M109 model (M109 lung carcinoma [4]; another M109 experiment, dissolved in cremophore/ethanol/saline, 60/mg/kg/inj.): did not show activity
T-C (M109 lung carcinoma [4]; [8]): 14 days
max. % T/C (M109 lung carcinoma [4]; [8]): 167%
activity in sc M109 model (M109 lung carcinoma [4]; one M109 experiment, 160 mg/kg/adm. (highest tested), suspended in water and Tween 80): did not show activity
T-C (M109 lung carcinoma [4]; [9]): 13 days
max. % T/C (M109 lung carcinoma [4]; [9]): 132%
Maximum Effect T-C (M109 lung carcinoma [4]; sc M109, i.v. once daily days 4-8, opt. dose 24 mg/kg/inj (lower dose gave maximum delay in tumor growth)): 14 days
Maximum Effect % T/C (M109 lung carcinoma [4]; sc M109, i.v. once daily days 4-8, opt. dose 48 mg/kg/inj (higher dose gave maximum increase in lifespan)): 134%
Maximum Effect % T/C (M109 lung carcinoma [4]; [10]): 151%
Maximum Effect T-C (M109 lung carcinoma [4]; [10]): 15 days
IC50 [5]: 0.004 µM

CC(=O)O[C@H]1C(=O)[C@@]2(C)[C@H]([C@H](OC(=O)c3ccccc3)[C@]3(O)C[C@H](OC(=O)[C@H](OCOP(=O)(O)O)[C@@H](NC(=O)c4ccccc4)c4ccccc4)C(C)=C1C3(C)C)[C@]1(OC(C)=O)CO[C@@H]1C[C@@H]2O [Example 4, 2′-O-(Phosphonooxymethyl)paclitaxel]
IC50 [1]: > 6.3 µM
IC50 [5]: 0.0457 µM

CSCO[C@H]1C[C@H]2OC[C@@]2(OC(C)=O)[C@H]2[C@H](OC(=O)c3ccccc3)[C@]3(O)C[C@H](OC(=O)[C@H](O)[C@@H](NC(=O)OC(C)(C)C)c4ccccc4)C(C)=C([C@@H](OC(C)=O)C(=O)[C@]12C)C3(C)C [14 (b), 3′-N-debenzoyl-3′-N-(t-butoxycarbonyl)-7-O-methylthiomethylpaclitaxel]
T/C (mg/kg/inj.; schedule in days) (M109 lung carcinoma [6]; 12 mg/kg/inj.): 143 (12; d. 5 + 9) %

CCOC(=O)O[C@@H](C(=O)O[C@H]1C[C@@]2(O)[C@@H](OC(=O)c3ccccc3)[C@@H]3[C@]4(OC(C)=O)CO[C@@H]4C[C@H](OCSC)[C@@]3(C)C(=O)[C@H](OC(C)=O)C(=C1C)C2(C)C)[C@@H](NC(=O)OC(C)(C)C)c1ccccc1 [Example 15, 3′-N-debenzoyl-3′-N-(t-butoxycarbonyl)-2′-O-ethyloxycarbonyl-7-O-methylthiomethylpaclitaxel]
T/C (mg/kg/inj.; schedule in days) (M109 lung carcinoma [6]; 8 mg/kg/inj.): 192 (8; d. 5 + 9) %

CCOC(=O)O[C@@H](C(=O)O[C@H]1C[C@@]2(O)[C@@H](OC(=O)c3ccccc3)[C@@H]3[C@]4(OC(C)=O)CO[C@@H]4C[C@H](OCOP(=O)(O)O)[C@@]3(C)C(=O)[C@H](OC(C)=O)C(=C1C)C2(C)C)[C@@H](NC(=O)c1ccccc1)c1ccccc1 [Example 3, 2′-O-(ethoxycarbonyl)-7-O-phosphonooxymethylpaclitaxel]
IC50 [1]: 6.25 µM
max. T-C [2, 7]: 29.8 days
max. T-C ([2]; orally, 160 mg/kg/adm., triethanolamine salt): 20 days
cures (tumor-free on Day 80 post tumor implant) ([3]; oral, 160 mg/kg/adm., triethanolamine salt, of 8 treated mice): 6
cures (tumor-free on Day 80 post tumor implant) ([3]; oral, 240 mg/kg/adm., triethanolamine salt, of 8 treated mice): 7
T-C (M109 lung carcinoma [4]; [11]): 17 days
max. % T/C (M109 lung carcinoma [4]; [11]): 170%
T-C (M109 lung carcinoma [4]; [12]): 17 days
max. % T/C (M109 lung carcinoma [4]; [12]): 172%
T-C (M109 lung carcinoma [4]; [13]): 19 days
max. % T/C (M109 lung carcinoma [4]; [13]): 155%
T-C (M109 lung carcinoma [4]; [14]): 22.8 days
max. % T/C (M109 lung carcinoma [4]; [14]): 158%
Maximum Effect T-C (M109 lung carcinoma [4]; sc M109, sodium salt, i.v. once daily days 5-9, opt. dose 24 mg/kg/inj): 18.8 days
Maximum Effect % T/C (M109 lung carcinoma [4]; sc M109, sodium salt, i.v. once daily days 5-9 post-tumor implant, opt. dose 24 mg/kg/inj): 160%
IC50 [5]: 0.312 µM

CSCO[C@H]1C[C@H]2OC[C@@]2(OC(C)=O)[C@H]2[C@H](OC(=O)c3ccccc3)[C@]3(O)C[C@H](OC(=O)[C@H](O)[C@@H](NC(=O)c4ccccc4)c4ccccc4)C(C)=C([C@@H](OC(C)=O)C(=O)[C@]12C)C3(C)C [Example 1 (a), 7-O-methylthiomethylpaclitaxel]
IC50 [1]: 0.025 µM
IC50 [5]: 0.003 µM

CC(=O)O[C@@]12CO[C@@H]1C[C@H](O)[C@@]1(C)C(=O)[C@H](O)C3=C(C)[C@@H](OC(=O)[C@H](O)[C@@H](NC(=O)OC(C)(C)C)c4ccccc4)C[C@@](O)([C@@H](OC(=O)c4ccccc4)[C@H]21)C3(C)C [Texotere ®, reference compound]
IC50 [1]: 0.213 µM
IC50 [5]: 0.004 µM

7-O-phosphonooxymethylpaclitaxel [Example 1]
IC50 [1]: 1.24 µM
oral activity in the HCT-116 model ([3]; triethanolamine salt, oral): oral activity
Maximum Effect T-C (M109 lung carcinoma [4]; sc M109, CDF1 mice, sodium salt, i.v. once daily days 4-8, opt. dose 45 mg/kg/inj, delay to 1 gm tumor): 14.0 days
Maximum Effect % T/C (M109 lung carcinoma [4]; sc M109, CDF1 mice, sodium salt, i.v. once daily days 4-8 post-tumor implant, opt. dose 45 mg/kg/inj, median survival): 131%
oral activity in the M109 model (M109 lung carcinoma [4]; triethanolamine salt, oral): oral activity
IC50 [5]: 0.0158 µM
